Earlier results on 1 compound are cited in patent US20040243224A1, “Methods and compositions for inhibiting narrowing in mammalian vascular pathways” (Medtronic Vascular, Inc., priority 2003, published 2004).

Holding throughout (settings): stated as known in the art, no data
Data set [1] concerns laboratory tumor cell lines.
A further data set concerns Tetrahymena furgasoni.
For the next data set, the system named is Ustilago maydis.

Take `COc1cc(O)c2c(c1)[C@H]1O[C@@H]1C[C@H](O)[C@H](O)C(=O)/C=C\C[C@H](C)OC2=O` [Hypothemycin, hypothemycin]: the “anti-tumor activity on laboratory tumor cell lines” value in data set [1] is on record as “exhibits anti-tumor activity”. Moreover, the “activity against Tetrahymena furgasoni” value in the data set with Tetrahymena furgasoni was “active”. For the same compound, the “activity against Ustilago maydis” value in the data set on Ustilago maydis is “active”.
